Laboratory results: patent US20260234217A1, “USE OF BMP RECEPTOR ALK1 INHIBITORS IN OSTEOARTHRITIS THERAPIES” (The Regents of the University of California, priority 2023, published 2026)
Entries after “also recorded” stand apart in the source; their conditions may differ.

Key:
[1] = system: chondrocyte hypertrophy and MMP13 expression; conditions: ex vivo and in vivo; cited from earlier work
[2] = system: bone marrow stromal cell-derived chondrocytes; conditions: cited from earlier work
AC cartilage = conditions: post-traumatic OA model, Jaswal et al.; cited from earlier work
[3] = system: articular cartilage of DMM mice; assay: DMM model of post-traumatic OA: Safranin-O/Fast Green staining and OARSI scoring of articular cartilage damage; type: in vivo, mouse; conditions: mice with established osteoarthritis, 50 ng/dose injected into knee joint space
Experimental: (§1) FIG. 13. Growth differentiation factor 11 (GDF11, see, e.g., NCBI Reference Sequence: NP_005802.1) competes with BMP9/10 for binding to BMP type II receptors ACVRIIA or ACVRIIB, thereby preventing the association of BMP type I receptor ALK1 with ACVRIIA/B and decreasing BMP signaling. […] We tested this hypothesis by locally injecting GDF11 (50 ng/dose) into the knee joint space at mice with established post-traumatic OA. (A) Experimental Outline (B) Safranin-O/Fast Green (SOFG) Staining of sagittal sections of the knee joint, femur (top) and tibia (bottom) for proteoglycan (cartilage; red) and bone (green) at week 8 after DMM or Sham surgery. Mice were treated with either GDF11, or Phosphate Buffered Saline (PBS) after received surgery (n=5/group). 4-Week DMM mice were sacrificed 4 weeks after surgery and received no treatment (n=6). AC damage indicated by dotted line. (C-D) Osteoarthritis Research Society International (OARSI) scoring of AC damage in the (C) medial tibial plateau and (D) medial femoral condyle in representative sections of each treatment at week 4 or 8 after surgery. All data are shown as mean bar+/−standard deviation *p<0.05. Data analysis performed was one-way ANOVA. Scale 250 uM.
Mice (C57BL/6J) were purchased from The Jackson Laboratory. All mice were housed on a 12-hour light/dark cycle with unrestricted access to standard mouse food and water. The DMM model of injury induced OA was performed on mice at 12 weeks of age by opening the joint capsule and transecting the medial meniscotibial ligament in the right knee, destabilizing the medial meniscus(48). A sham operation was performed on the left knee of each mouse by observing the medial meniscotibial ligament but not transecting it. Mice were administered carprofen 5 mg/kg (Zoetis; 1041283) subcutaneously 30 minutes prior to surgery, immediately post-surgery, and 24 hours post-surgery to minimize pain.
Treatments were initiated either 1 day after DMM surgery once a week for 8 weeks, or 1 month after DMM surgery twice a week for 4 weeks. Mice were sacrificed at 20 weeks of age (2 months after surgery). To understand the level of articular cartilage damage 1 month after DMM surgery, a cohort of mice was sacrificed at 16 weeks old (FIG. 4).
Knee joint samples were harvested and fixed in 4% Paraformaldehyde for 3 days, and subsequently decalcified in formic acid (Statlab; 1414-32) for 3 days and embedded in paraffin. Sagittal sections 7 micrometers in thickness were taken and stained using Safranin-O (Sigma-Aldrich; S8884-25G), fast green (Sigma-Aldrich; F7258-25G), and hematoxylin (Fisherbrand; 245-656) using a standard histology protocol. Images were taken with the Olympus BX60 brightfield microscope using a 10× objective lens. Representative sections throughout the medial and lateral portion of side were chosen for histological analysis, resulting in 5 sections being imaged for both portions of the joint.
The 10 total sections per joint chosen for histology received randomized sample numbers and were given to three independent researchers who scored the level of cartilage damage based on OARSI guidelines (84). OARSI scores were analyzed with Prism 9 Software (GraphPad) using two-way ANOVA and Tukey's multiple comparisons test post-hoc. Scoring was performed by at least three experienced investigators blinded to treatment/genotype. Scores were averaged for the medial tibial plateau, medial femoral condyle, lateral tibial plateau, and lateral femoral condyle for each sample.

TGFbeta signaling = assay: GDF11 injection into the knee joint of mice with established post-traumatic OA: TGFbeta signaling; type: in vivo, mouse; conditions: data of FIG. 13
Experimental: as §1, with “uM. […]” for “uM.”

Molecule	chondrocyte hypertrophy and MMP13 expression [1]	chondrocyte hypertrophy / chondrogenic hypertrophic markers in vitro [2]	protection of AC cartilage (AC cartilage)	degeneration of articular cartilage [3]	TGFbeta signaling (TGFbeta signaling)
c1ccc2c(-c3cnn4cc(-c5ccc(N6CCNCC6)cc5)cnc34)ccnc2c1 [LDN-193189]	prevented	not able to prevent; also recorded: no reduction	protective		
GDF11: GDF11 protein from Bio-techne/R&D, catalog 1958-GD, truncated active protein of 109 amino acids (protein, UniProt O95390 299-407, looked up, Growth/differentiation factor 11) Growth/differentiation factor …: NLGLDCDEHSSESRCCRYPLTVDFEAFGWDWIIAPKRYKANYCSGQCEYMFMQKYPHTHLVQQANPRGSAGPCCTPTKMSPINMLYFNDKQQIIYGKIPGMVVDRCGCS				attenuate the degeneration of articular cartilage	increase TGFbeta signaling
